Measured values taken from ChEMBL document CHEMBL3769405, “Discovery of Potent and Selective Inhibitors of Phosphodiesterase 1 for the Treatment of Cognitive Impairment Associated with Neurodegenerative and Neuropsychiatric Diseases” (J Med Chem, 2016).
In brackets after ≈: the same amount, converted by molar mass.

Key:
[1] = Inhibition of bovine brain PDE1 using fluorescent labeled cGMP as substrate after 15 mins by IMAP assay; set-up: species or system Bos taurus
[2] = molecular target: cAMP and cAMP-inhibited cGMP 3',5'-cyclic phosphodiesterase 10A (Homo sapiens, UniProt Q9Y233); test: Inhibition of recombinant full lenght human PDE10A using fluorescent labeled cAMP as substrate after 15 mins by IMAP assay
Sequence of cAMP and cAMP-inhibited cGMP 3',5'-cyclic phosphodiesterase 10A (Q9Y233 whole entry): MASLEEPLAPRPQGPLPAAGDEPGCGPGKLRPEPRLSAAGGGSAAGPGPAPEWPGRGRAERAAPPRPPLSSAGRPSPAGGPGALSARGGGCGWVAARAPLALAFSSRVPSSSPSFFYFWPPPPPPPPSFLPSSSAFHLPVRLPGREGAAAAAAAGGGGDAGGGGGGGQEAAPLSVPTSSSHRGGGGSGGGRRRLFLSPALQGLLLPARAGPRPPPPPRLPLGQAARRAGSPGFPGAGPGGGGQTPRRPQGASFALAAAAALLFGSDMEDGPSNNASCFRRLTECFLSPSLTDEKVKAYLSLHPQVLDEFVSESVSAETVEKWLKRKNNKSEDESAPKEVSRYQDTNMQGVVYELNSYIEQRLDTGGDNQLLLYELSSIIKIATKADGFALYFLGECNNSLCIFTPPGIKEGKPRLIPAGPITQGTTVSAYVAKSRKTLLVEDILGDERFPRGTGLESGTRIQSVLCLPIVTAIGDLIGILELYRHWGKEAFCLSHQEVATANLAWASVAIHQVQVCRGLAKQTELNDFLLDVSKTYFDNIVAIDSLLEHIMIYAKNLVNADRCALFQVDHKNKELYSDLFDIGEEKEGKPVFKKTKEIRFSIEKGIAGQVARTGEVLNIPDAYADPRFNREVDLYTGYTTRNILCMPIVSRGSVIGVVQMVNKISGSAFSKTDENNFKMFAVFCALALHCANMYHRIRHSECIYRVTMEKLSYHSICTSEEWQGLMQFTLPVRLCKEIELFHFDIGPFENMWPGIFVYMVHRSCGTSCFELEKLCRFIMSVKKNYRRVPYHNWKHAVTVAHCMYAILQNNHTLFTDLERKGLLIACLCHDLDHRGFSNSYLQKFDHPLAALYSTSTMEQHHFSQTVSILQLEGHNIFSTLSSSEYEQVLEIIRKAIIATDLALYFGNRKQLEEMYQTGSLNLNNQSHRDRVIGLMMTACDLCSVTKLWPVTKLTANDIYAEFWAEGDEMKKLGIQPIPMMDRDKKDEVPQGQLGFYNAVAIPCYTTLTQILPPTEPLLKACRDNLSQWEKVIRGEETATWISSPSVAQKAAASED

[3] = molecular target: 3',5'-cyclic-AMP phosphodiesterase 4A (Homo sapiens, UniProt P27815); test: Inhibition of recombinant full lenght human PDE4A using fluorescent labeled cAMP as substrate after 15 mins by IMAP assay
Sequence of 3',5'-cyclic-AMP phosphodiesterase 4A (P27815 whole entry): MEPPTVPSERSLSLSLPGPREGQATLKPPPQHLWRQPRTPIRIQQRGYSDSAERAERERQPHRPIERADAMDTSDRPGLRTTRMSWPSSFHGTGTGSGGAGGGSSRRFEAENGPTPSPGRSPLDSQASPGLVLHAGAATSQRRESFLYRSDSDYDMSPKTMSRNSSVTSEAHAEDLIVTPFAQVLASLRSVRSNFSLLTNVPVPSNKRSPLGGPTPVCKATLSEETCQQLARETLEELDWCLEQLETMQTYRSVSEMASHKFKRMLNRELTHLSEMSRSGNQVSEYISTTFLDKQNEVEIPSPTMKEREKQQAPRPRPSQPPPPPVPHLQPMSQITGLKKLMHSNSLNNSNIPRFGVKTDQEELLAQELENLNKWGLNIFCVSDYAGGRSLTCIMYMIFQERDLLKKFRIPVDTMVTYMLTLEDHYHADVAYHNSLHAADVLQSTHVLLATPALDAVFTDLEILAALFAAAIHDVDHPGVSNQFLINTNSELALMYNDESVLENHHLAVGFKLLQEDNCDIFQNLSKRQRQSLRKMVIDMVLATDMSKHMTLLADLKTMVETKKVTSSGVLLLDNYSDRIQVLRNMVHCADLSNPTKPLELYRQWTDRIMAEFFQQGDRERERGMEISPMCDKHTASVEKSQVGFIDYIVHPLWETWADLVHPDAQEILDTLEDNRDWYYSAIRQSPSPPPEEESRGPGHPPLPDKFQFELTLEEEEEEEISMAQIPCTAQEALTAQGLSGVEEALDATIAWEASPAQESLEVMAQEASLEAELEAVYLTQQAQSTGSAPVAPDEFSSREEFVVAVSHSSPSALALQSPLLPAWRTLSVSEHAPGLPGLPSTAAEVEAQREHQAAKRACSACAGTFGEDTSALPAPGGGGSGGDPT

[4] = Intrinsic clearance in human liver microsomes; assay type: ADME; settings: read-out: CLH
[5] = molecular target: cGMP-dependent 3',5'-cyclic phosphodiesterase (Homo sapiens, UniProt O00408); test: Inhibition of recombinant full length human PDE2A using fluorescent labeled cAMP as substrate after 15 mins by IMAP assay
Sequence of cGMP-dependent 3',5'-cyclic phosphodiesterase (O00408 whole entry): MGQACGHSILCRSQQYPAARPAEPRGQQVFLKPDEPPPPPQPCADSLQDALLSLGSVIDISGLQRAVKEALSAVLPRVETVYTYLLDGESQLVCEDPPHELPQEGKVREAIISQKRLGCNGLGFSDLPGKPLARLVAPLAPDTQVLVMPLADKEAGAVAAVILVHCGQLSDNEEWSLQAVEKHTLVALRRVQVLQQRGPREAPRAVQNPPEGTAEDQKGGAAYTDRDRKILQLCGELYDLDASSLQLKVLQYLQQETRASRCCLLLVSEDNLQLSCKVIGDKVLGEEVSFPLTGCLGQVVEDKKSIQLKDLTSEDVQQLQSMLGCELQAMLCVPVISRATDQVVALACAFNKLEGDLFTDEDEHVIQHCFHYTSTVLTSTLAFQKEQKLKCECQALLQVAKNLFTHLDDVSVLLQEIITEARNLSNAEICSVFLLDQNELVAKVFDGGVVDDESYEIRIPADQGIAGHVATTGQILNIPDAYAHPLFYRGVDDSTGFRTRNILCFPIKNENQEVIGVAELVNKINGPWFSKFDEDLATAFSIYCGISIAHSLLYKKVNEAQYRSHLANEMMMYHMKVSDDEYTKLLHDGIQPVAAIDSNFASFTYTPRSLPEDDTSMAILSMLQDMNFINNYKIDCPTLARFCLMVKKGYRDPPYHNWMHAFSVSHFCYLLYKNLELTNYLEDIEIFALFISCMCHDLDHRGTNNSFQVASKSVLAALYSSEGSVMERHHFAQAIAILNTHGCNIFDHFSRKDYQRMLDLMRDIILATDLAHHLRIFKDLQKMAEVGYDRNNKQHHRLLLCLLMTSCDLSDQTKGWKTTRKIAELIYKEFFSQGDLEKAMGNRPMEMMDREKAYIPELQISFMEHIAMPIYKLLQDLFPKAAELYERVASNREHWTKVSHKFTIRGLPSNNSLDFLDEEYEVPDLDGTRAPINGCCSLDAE

[6] = molecular target: cGMP-inhibited 3',5'-cyclic phosphodiesterase 3B (Homo sapiens, UniProt Q13370); test: Inhibition of recombinant full length human PDE3B using fluorescent labeled cAMP as substrate after 15 mins by IMAP assay
Sequence of cGMP-inhibited 3',5'-cyclic phosphodiesterase 3B (Q13370 whole entry): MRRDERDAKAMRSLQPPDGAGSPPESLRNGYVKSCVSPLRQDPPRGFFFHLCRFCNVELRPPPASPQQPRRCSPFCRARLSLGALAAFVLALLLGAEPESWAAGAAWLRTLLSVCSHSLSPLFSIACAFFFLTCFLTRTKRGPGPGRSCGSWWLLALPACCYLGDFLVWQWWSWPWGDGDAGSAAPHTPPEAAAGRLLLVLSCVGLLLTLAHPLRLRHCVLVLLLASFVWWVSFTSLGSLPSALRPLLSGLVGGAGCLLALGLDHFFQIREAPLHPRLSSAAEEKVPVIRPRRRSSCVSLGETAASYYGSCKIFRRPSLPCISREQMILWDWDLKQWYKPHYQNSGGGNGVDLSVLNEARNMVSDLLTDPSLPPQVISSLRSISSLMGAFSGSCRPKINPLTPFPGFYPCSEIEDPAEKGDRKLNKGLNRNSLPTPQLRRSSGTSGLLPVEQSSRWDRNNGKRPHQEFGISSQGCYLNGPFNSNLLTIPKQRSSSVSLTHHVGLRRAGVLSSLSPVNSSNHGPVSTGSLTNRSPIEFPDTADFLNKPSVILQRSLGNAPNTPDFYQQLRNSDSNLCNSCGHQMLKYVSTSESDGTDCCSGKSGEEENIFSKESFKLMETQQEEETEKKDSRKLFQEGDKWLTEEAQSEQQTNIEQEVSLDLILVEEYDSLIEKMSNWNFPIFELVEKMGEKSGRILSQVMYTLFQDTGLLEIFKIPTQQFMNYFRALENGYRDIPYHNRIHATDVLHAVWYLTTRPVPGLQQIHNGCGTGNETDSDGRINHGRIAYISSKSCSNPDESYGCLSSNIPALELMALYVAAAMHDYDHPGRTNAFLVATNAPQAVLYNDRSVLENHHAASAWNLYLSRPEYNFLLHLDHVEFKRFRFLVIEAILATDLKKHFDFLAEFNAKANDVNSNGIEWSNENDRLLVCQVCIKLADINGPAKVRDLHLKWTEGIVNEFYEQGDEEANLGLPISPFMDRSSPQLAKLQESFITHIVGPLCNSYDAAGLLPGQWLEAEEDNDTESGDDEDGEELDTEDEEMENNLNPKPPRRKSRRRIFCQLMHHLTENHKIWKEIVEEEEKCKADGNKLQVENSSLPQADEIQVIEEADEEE

[7] = molecular target: cGMP-specific 3',5'-cyclic phosphodiesterase (Homo sapiens, UniProt O76074); test: Inhibition of recombinant full lenght human PDE5A using fluorescent labeled cGMP as substrate after 15 mins by IMAP assay
[8] = Inhibition of bovine retinal PDE6 using fluorescent labeled cGMP as substrate after 15 mins by IMAP assay
[9] = molecular target: 3',5'-cyclic-AMP phosphodiesterase 7B (Homo sapiens, UniProt Q9NP56); test: Inhibition of recombinant full lenght human PDE7B using fluorescent labeled cAMP as substrate after 15 mins by IMAP assay
Sequence of 3',5'-cyclic-AMP phosphodiesterase 7B (Q9NP56 whole entry): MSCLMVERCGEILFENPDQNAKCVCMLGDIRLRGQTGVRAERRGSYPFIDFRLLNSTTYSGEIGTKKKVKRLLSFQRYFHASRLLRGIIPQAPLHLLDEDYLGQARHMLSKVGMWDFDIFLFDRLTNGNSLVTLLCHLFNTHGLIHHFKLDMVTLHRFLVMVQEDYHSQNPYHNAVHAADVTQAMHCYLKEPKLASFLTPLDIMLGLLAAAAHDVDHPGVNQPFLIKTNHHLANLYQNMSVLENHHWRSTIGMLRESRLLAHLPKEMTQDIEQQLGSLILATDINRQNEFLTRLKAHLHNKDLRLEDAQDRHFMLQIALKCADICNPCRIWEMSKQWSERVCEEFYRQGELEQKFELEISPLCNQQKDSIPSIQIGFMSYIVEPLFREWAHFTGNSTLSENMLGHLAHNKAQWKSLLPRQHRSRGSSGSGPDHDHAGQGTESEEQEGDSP

[10] = molecular target: High affinity cAMP-specific and IBMX-insensitive 3',5'-cyclic phosphodiesterase 8A (Homo sapiens, UniProt O60658); test: Inhibition of recombinant full lenght human PDE8A using fluorescent labeled cAMP as substrate after 15 mins by IMAP assay
[11] = molecular target: High affinity cGMP-specific 3',5'-cyclic phosphodiesterase 9A (Homo sapiens, UniProt O76083); test: Inhibition of recombinant full lenght human PDE9A using fluorescent labeled cGMP as substrate after 15 mins by IMAP assay
Sequence of High affinity cGMP-specific 3',5'-cyclic phosphodiesterase 9A (O76083 whole entry): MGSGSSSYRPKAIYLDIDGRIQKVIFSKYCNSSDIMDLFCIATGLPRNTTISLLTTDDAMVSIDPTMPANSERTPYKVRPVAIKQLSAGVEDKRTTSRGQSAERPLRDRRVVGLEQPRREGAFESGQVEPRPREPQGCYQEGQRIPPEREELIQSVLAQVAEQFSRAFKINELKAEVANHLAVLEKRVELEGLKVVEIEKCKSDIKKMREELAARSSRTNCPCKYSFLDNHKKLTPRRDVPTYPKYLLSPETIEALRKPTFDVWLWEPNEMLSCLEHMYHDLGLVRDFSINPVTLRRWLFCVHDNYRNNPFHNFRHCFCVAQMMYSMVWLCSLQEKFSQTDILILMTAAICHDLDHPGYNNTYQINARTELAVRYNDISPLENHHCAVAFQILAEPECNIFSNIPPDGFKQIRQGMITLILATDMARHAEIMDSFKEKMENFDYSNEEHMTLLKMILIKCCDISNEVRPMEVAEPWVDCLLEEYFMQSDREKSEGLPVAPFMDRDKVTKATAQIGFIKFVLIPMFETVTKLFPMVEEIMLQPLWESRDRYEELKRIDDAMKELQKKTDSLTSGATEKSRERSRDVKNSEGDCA

[12] = Lipophilicity, logD of compound at pH 7.4; assay type: physicochemical; settings: buffer
[13] = Lipophilicity, logD of compound at pH 1.7; assay type: physicochemical; settings: buffer
[14] = Solubility of compound in PBS; assay type: physicochemical
[15] = Cmax in C57BL/6 mouse plasma at 10 mg/kg administered through oral gavage; assay type: ADME, organism-based; set-up: dose 10 mg/kg, route oral
[16] = Cmax in C57BL/6 mouse brain at 10 mg/kg administered through oral gavage; assay type: ADME, organism-based; set-up: dose 10 mg/kg, route oral
[17] = AUClast in C57BL/6 mouse plasma at 10 mg/kg administered through oral gavage; assay type: ADME, organism-based; set-up: dose 10 mg/kg, time 0 - last, route oral
[18] = AUClast in C57BL/6 mouse brain at 10 mg/kg administered through oral gavage; assay type: ADME, organism-based; set-up: dose 10 mg/kg, time 0 - last, route oral
[19] = Half time in Sprague-Dawley rat at 1 mg/kg, iv; assay type: ADME, organism-based; settings: in vivo
[20] = Volume of distribution in Sprague-Dawley rat at 1 mg/kg, iv; assay type: ADME, organism-based; settings: in vivo
[21] = Clearance in Sprague-Dawley rat at 1 mg/kg, iv; assay type: ADME, organism-based; settings: in vivo
[22] = AUC(infinity) in Sprague-Dawley rat at 1 mg/kg, iv; assay type: ADME, organism-based; set-up: dose 1 mg/kg, time infinity, route intravenous; settings: in vivo
[23] = Half time in Sprague-Dawley rat at 9.75 mg/kg administered through oral gavage; assay type: ADME, organism-based; settings: in vivo
[24] = Cmax in Sprague-Dawley rat at 9.75 mg/kg administered through oral gavage; assay type: ADME, organism-based; set-up: dose 9.75 mg/kg, route oral; settings: in vivo
[25] = Tmax in Sprague-Dawley rat at 9.75 mg/kg administered through oral gavage; assay type: ADME, organism-based; settings: in vivo
[26] = AUC(infinity) in Sprague-Dawley rat at 9.75 mg/kg administered through oral gavage; assay type: ADME, organism-based; set-up: dose 9.75 mg/kg, route oral, time infinity; settings: in vivo
[27] = Oral bioavailability in Sprague-Dawley rat at 9.75 mg/kg administered through gavage; assay type: ADME, organism-based; settings: in vivo
[28] = Selectivity ratio of Ki for recombinant full lenght human PDE4A to bovine brain PDE1
[29] = in vivo; settings: C57BL/6, mouse, brain/plasma
[30] = test system: Rattus norvegicus; test: Increase in cognitive performance in ip dosed Sprague-Dawley rat after 60 mins by novel object recognition test; assay type: functional; settings: 1 h, read-out: MED

Structure (SMILES)	Ki [1] [nM]	Ki [2] [nM]	Ki [3] [nM]	CLint scaled [4] [mL/min/kg]	Ki [5] [nM]	Ki [6] [nM]	Ki [7] [nM]	Ki [8] [nM]	Ki [9] [nM]	logD [12]	logD [13]	solubility [14] [µM]	Cmax [15] [ng/mL]	Cmax [16] [ng/mL]	AUC(0-t) [17] [ng·h/mL]	AUC(0-t) [18] [ng·h/mL]	half-life [23] [h]	Cmax [24] [ng/mL]	Tmax [25] [h]	AUC(0-inf) [26] [ng·h/mL]	other results
CN1C(=O)c2c(nn(Cc3ccc(-c4cccc(F)n4)cc3)c2Nc2ccccc2)N2C1=N[C@@H]1CCC[C@@H]12.O=P(O)(O)O [LENRISPODUN PHOSPHATE]	0.058			78			630			4.41	1.27	22	490	387	826	588	1.5	252	0.75	802	half-life [19]: 1.4 h; Vd [20]: 6.83 L/kg; clearance [21]: 55 mL/min/kg; AUC(0-inf) [22]: 300 ng·h/mL; bioavailability [27]: 28%; minimal effective dose [30]: 3 mg/kg
CN1C(=O)c2c(nn(Cc3ccc(-c4ccccn4)cc3)c2Nc2ccccc2)N2C1=N[C@@H]1CCC[C@@H]12	0.085	2700	240	189	24000	1200	600	430	300	3.54	-0.58	> 100	48	28	65	21	1.5	158	0.5	636	Ki [10]: 8200 nM; Ki [11]: 6100 nM; half-life [19]: 0.72 h; Vd [20]: 2.48 L/kg; clearance [21]: 40 mL/min/kg; AUC(0-inf) [22]: 420 ng·h/mL; bioavailability [27]: 16%
CN1C(=O)c2c(nn(Cc3ccc(C(F)(F)F)cc3)c2Nc2ccc(F)cc2)N2C1=N[C@@H]1CCC[C@@H]12	0.63		420	73						4.57	1.11	31 (≈ 15.5 µg/mL)	21	133	24	166	2.2	42	0.5	164	Ratio Ki [28]: 667; half-life [19]: 1.5 h; Vd [20]: 7.48 L/kg; clearance [21]: 57 mL/min/kg; AUC(0-inf) [22]: 292 ng·h/mL; bioavailability [27]: 6%; Kp [29]: 6.9

Second part, led by results:

Ki [1] [nM]	Ki [2] [nM]	Ki [3] [nM]	CLint scaled [4] [mL/min/kg]	Ki [5] [nM]	Ki [6] [nM]	Ki [7] [nM]	Ki [8] [nM]	Ki [9] [nM]	logD [12]	logD [13]	solubility [14] [µM]	Cmax [15] [ng/mL]	Cmax [16] [ng/mL]	AUC(0-t) [17] [ng·h/mL]	AUC(0-t) [18] [ng·h/mL]	half-life [23] [h]	Cmax [24] [ng/mL]	Tmax [25] [h]	AUC(0-inf) [26] [ng·h/mL]	Structure (SMILES)	other results
0.88	5400	930	139	39000	30000	590	1600	1200	4.47	1.16	35 (≈ 16.8 µg/mL)	60	285	122	548	1.5	75	0.25	214	CN1C(=O)c2c(nn(Cc3ccc(C(F)(F)F)cc3)c2Nc2ccccc2)N2C1=N[C@@H]1CCC[C@@H]12	Ki [10]: 54000 nM; Ki [11]: 50000 nM; half-life [19]: 1.4 h; Vd [20]: 7.44 L/kg; clearance [21]: 62 mL/min/kg; AUC(0-inf) [22]: 271 ng·h/mL; bioavailability [27]: 8%
2.2		770	165						4.96	1.36	< 1	86	101	134	154					CN1C(=O)c2c(nn(Cc3ccc(-c4cccc(F)n4)cc3)c2Cc2ccccc2)N2C1=N[C@@H]1CCC[C@@H]12	Ratio Ki [28]: 350; Kp [29]: 1.2
1.9	19000	1200		> 100000	42000	1200	5500	6100												CN1C(=O)c2c(nn(Cc3ccc(C(F)(F)F)nc3)c2Nc2ccccc2)N2C1=N[C@@H]1CCC[C@@H]12	Ki [10]: > 100000 nM; Ki [11]: > 100000 nM
0.85	7900	1300		37000	1500	1600	1100	910	> 5	1.92	2 (≈ 0.977 µg/mL)	130	474	286	542	3.1	102	4	816	CN1C(=O)c2c(nn(Cc3ccc(-c4ccccc4)cc3)c2Nc2ccccc2)N2C1=N[C@@H]1CCC[C@@H]12	Ki [10]: 33000 nM; Ki [11]: > 100000 nM
